# Measured values reported in patent US12070470B2, “Topoisomerase inhibitor for mimicking the effect of ionizing radiations on T cells” (Novagray, priority 2018, dated 2024).
# Test system: CD8 T-lymphocyte
# Experiment: Etoposide-induced CD8 T-lymphocyte apoptosis procedure (flow cytometry, compared with 8 Gy RILA)
# Type: cell-based, human
# Details: for Corresponding etoposide concentration: x̃i^co: concentration corresponding to 8 Gy RILA, applied at the start of cell culture, whole blood
# Procedure: Blood samples were purchased from Etablissement Français du Sang (EFS) with the convention number 21PLER2016-0100 AV01. Blood samples were collected from healthy donors in 5 mL heparinized tubes without separation gel.
# Blood cells were grown in RPMI-1640 with glutamax (Fisher scientific, France) supplemented with 20% fetal calf serum (FCS) (EuroBio, France). Cells were maintained at 37° C. with 5% CO2 during the experiments.
# Etoposide (EuroMedex) was solubilized in sterile dimethyl-sulfoxide (DMSO) at 75 mg/mL according to manufacturer instructions and stored at −80° C.
# Before radiotherapy (RT), one blood sample was collected from each patient in a 5-mL heparinized tube. Twenty or twenty-four hours after blood collection, 200 μl of blood were aliquoted into a 6-well plate containing 2 mL of RPMI-20% FCS. All tests were carried out in triplicate for both 0 and 8 Gy. Ex-vivo irradiations were delivered after 24 hours of blood cell culture using the Xenx irradiator platform (XStrahl, UK). Then, the plates were immediately incubated for 48 hours at 37° C. (5% C02).
# Samples were then centrifuged for 5 min at 300 g. The pellets were resuspended in phosphate-buffered saline (PBS) containing 10 μl of anti-human CD8-FITC antibody (Becton Dickinson, USA) and incubated for 20 minutes at room temperature. Then, red blood cells were lysed by addition of 4 ml of lysis buffer diluted 1:10 in water (Becton Dickinson, USA). After another 20 minutes incubation time at room temperature, samples were centrifuged for 5 min at 300 g and the pellets were washed with 3 ml of PBS. Pellets were suspended in 200 μl of PBS containing 25 μg/ml of propidium iodide (Sigma, France) and 5 μl of RNAse A at 10 mg/ml (Qiagen, France). The samples were analyzed by flow cytometry within the next hours, using the CytoFlex (Beckman Coulter, USA).
# Different irradiation doses (0 Gy, 6 Gy, 8 Gy and 10 Gy) and different Etoposide concentrations (40 μg/mL, 60 μg/mL, 70 μg/mL, 80 μg/mL, 100 μg/mL) were applied to aliquots of the same blood sample.
# Irradiations and culture were performed as previously described. The staining was performed 48 hours after the irradiation using the same protocol as previously described.
# For the Etoposide treatment, two hundred microliters of blood were aliquoted into a 6-well plate containing 2 mL of RPMI-20% FCS-Etoposide 24 hours after blood cell collection. The cell culture media containing the different concentrations of etoposide were made fresh just before starting the cell culture. After etoposide incubation with blood cells for at least 50 hours (generally more than about 60 hours, in particular between 65 and 75 hours), samples were stained for flow cytometry analysis as described above.
# Two mixed linear models with fixed intercept, fixed slope and random intercept were used to model the RILA rate evolution according to the compound or to the irradiation dose in Gray.
structure (smiles),measurement,setting,value
COc1cc([C@@H]2c3cc4c(cc3[C@@H](O[C@@H]3O[C@@H]5CO[C@@H](C)O[C@H]5[C@H](O)[C@H]3O)[C@H]3COC(=O)[C@H]23)OCO4)cc(OC)c1O [etoposide],Corresponding etoposide concentration: x̃i^co,Donor 1,66.2 µg/mL
same,Corresponding etoposide concentration: x̃i^co,Donor 2,70.1 µg/mL
same,Corresponding etoposide concentration: x̃i^co,Donor 3,67.1 µg/mL
same,Corresponding etoposide concentration: x̃i^co,Donor 4,106.1 µg/mL
same,Corresponding etoposide concentration: x̃i^co,Donor 5,87.1 µg/mL
same,concentration at which the apoptosis rate obtained after irradiation is achieved,treatment applied at the start of blood cell culture,less than 150 μg/ml
